Source: US20170121344A1 (Siga Technologies, Inc., priority 2009, published 2017)
Where two headings read alike, the source gives them in different places.

Test system: Dengue-2 (Strain New Guinea C)
Experiment: Viral yield assay against Dengue-2 in Vero cells
Assay type: cell-based, Dengue virus
Details: Dengue virus, read-out: Activity (EC50 class) against Dengue-2 Virus in Vero cells
How it was run: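 Vero cells were infected with dengue virus at an MOI of 0.1, treated with compound or DMSO vehicle, and kept at 37° C. Supernatant virus was harvested 48 hours post infection and titered on Vero cells, with EC50 derived from yield reduction.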

[1] = Vero cells, MOI 0.1, harvested 48 hours post infection

| SMILES | EC50 [1] [µM] | EC50 (Vero, 48 h) [µM] |
| --- | --- | --- |
| COCc1cc(C)nc2sc(C(=O)Nc3ccccc3Cl)c(N)c12 [Compound 185, 3-Amino-4-methoxymethyl-6-methyl-thieno[2,3-b]pyridine-2-carboxylic acid (2-chloro-phenyl)-amide] | > 25 |  |
| Cc1cc(C)c2c(N)c(C(=O)Nc3cc(C(F)(F)F)ccc3Cl)sc2n1 [Compound 186, 3-Amino-4,6-dimethyl-thieno[2,3-b]pyridine-2-carboxylic acid (2-chloro-5-trifluoromethyl-phenyl)-amide] | > 25 |  |
| Nc1c(C(=O)N2CCOCC2)sc2nc3c(cc12)CCCC3 [Compound 187, (3-Amino-5,6,7,8-tetrahydro-thieno[2,3-b]quinolin-2-yl)-morpholin-4-yl-methanone] |  | > 25 |
| Nc1c(C(=O)N2CCCCC2)sc2nc3c(cc12)CCC3 [Compound 188, (3-Amino-6,7-dihydro-5H-cyclopenta[b]thieno[3,2-e]pyridin-2-yl)-piperidin-1-yl-methanone] | > 25 |  |
| Nc1c(C(=O)N2CCCCC2)sc2nc(-c3cccs3)cc(C(F)(F)F)c12 [Compound 189, (3-Amino-6-thiophen-2-yl-4-trifluoromethyl-thieno[2,3-b]pyridin-2-yl)-piperidin-1-yl-methanone] | > 25 |  |
| CCc1nnc(NC(=O)c2sc3nc4c(cc3c2N)CCC4)s1 [Compound 190, 3-Amino-6,7-dihydro-5H-cyclopenta[b]thieno[3,2-e]pyridine-2-carboxylic acid (5-ethyl-[1,3,4]thiadiazol-2-yl)-amide] | > 25 |  |
| Nc1c(C(=O)N2CCCCC2)sc2nc3c(cc12)CCCCC3 [Compound 191, (3-Amino-6,7,8,9-tetrahydro-5H-1-thia-10-aza-cyclohepta[f]inden-2-yl)-piperidin-1-yl-methanone] | > 25 |  |
| Nc1c(C(=O)Nc2nccs2)sc2nc(-c3ccccc3)cc(C(F)(F)F)c12 [Compound 192, 3-Amino-6-phenyl-4-trifluoromethyl-thieno[2,3-b]pyridine-2-carboxylic acid thiazol-2-ylamide] | > 25 |  |
| Nc1c(C(=O)Nc2cc(C(F)(F)F)ccc2Cl)sc2nc3c(cc12)CCCC3 [Compound 193, 3-Amino-5,6,7,8-tetrahydro-thieno[2,3-b]quinoline-2-carboxylic acid (2-chloro-5-trifluoromethyl-phenyl)-amide] | > 25 |  |
| CCc1nnc(NC(=O)c2sc3nc(-c4ccccc4)cc(C(F)(F)F)c3c2N)s1 [Compound 194, 3-Amino-6-phenyl-4-trifluoromethyl-thieno[2,3-b]pyridine-2-carboxylic acid (5-ethyl-[1,3,4]thiadiazol-2-yl)-amide] | > 25 |  |
| NC(=O)c1sc2nc3c(c(-c4cccs4)c2c1N)CCCC3 [Compound 195, 3-Amino-4-thiophen-2-yl-5,6,7,8-tetrahydro-thieno[2,3-b]quinoline-2-carboxylic acid amide] | > 25 |  |
| CCN(CC)C(=O)c1sc2nc(-c3ccccc3)cc(C(F)(F)F)c2c1N [Compound 196, 3-Amino-6-phenyl-4-trifluoromethyl-thieno[2,3-b]pyridine-2-carboxylic acid diethylamide] | > 25 |  |
| COCc1cc(C)nc2sc(C(=O)Nc3ccc(Br)c(Cl)c3)c(N)c12 [Compound 197, 3-Amino-4-methoxymethyl-6-methyl-thieno[2,3-b]pyridine-2-carboxylic acid (4-bromo-3-chloro-phenyl)-amide] |  | > 25 |
| Cc1cc(C)c2c(n1)sc1c(=O)n(-c3cccc(C(F)(F)F)c3)cnc12 [Compound 198, 7,9-Dimethyl-3-(3-trifluoromethyl-phenyl)-3H-pyrido[3′,2′:4,5]thieno[3,2-d]pyrimidin-4-one] | > 25 |  |
| Cc1cc(C)c2c(N)c(C(=O)NCC(=O)O)sc2n1 [Compound 199, [(3-Amino-4,6-dimethyl-thieno[2,3-b]pyridine-2-carbonyl)-amino]-acetic acid] | > 25 |  |
